Earlier results in patent publication US20040084867A1, “Individualization of therapy with anticoagulants” (Xanthus Life Sciences, Inc., priority 2002, published 2004).
Read-outs that look alike come from different tables or passages of the source.

Assays:
[1] = tested on: individuals treated with warfarin; conditions: cited from earlier work
[2] = target: CYP2C9 (Homo sapiens, UniProt P11712); conditions: in vivo; cited from earlier work
[3] = tested on: CYP2C9; conditions: cited from earlier work
[4] = tested on: individuals with deep vein thrombosis; conditions: cited from earlier work

CYP2C9 (Homo sapiens, UniProt P11712), sequence (P11712 whole entry): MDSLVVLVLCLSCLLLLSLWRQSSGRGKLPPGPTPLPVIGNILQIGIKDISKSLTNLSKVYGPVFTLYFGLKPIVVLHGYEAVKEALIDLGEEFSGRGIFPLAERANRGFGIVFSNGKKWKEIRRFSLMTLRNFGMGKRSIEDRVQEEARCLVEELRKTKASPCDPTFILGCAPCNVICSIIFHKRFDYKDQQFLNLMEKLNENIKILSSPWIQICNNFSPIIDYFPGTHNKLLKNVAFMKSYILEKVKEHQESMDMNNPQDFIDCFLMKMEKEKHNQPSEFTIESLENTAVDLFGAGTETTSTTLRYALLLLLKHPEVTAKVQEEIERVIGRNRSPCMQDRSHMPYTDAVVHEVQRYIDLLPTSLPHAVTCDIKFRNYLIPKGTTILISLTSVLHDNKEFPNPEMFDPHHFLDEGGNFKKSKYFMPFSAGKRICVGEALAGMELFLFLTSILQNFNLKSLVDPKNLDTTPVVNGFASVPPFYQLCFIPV

CC(=O)CC(c1ccccc1)c1c(O)c2ccccc2oc1=O (racemic) [warfarin]
effective daily doses ([1]; inter-individual range): 1 to 60 mg/day | daily dose required to maintain efficacy while avoiding side effects ([1]; varies from one individual to another): 0.5 to 60 mg | MD (maintenance dose) [2]: vs. 0.397 (*1/*1) mg/kg/wk | MD (daily maintenance dose) ([3]; 1 individual, not specified, *3/*3): 0.5 mg/day | MD (maintenance dose) ([3]; 38 Caucasian and African-American, *1/*3, *1/*2, *2/*2, CYP2A6*1/*2): MD; 0.307 (*1/*3, *1/*2, *2/*2, CYP2A6*1/*2) mg/kg/wk | MD (daily maintenance dose) ([3]; 47 Japanese, *1/*3): 1.75 mg/day | MD (daily maintenance dose) ([3]; 47 Japanese, *3/*3): 0.4 mg/day | MD (daily maintenance dose) ([3]; 52 British, *1/*2, *2/*2): 3.5 mg/day | MD (daily maintenance dose) ([3]; 52 British, *1/*3): 2.5 mg/day | share of group with at least 1 of *3 or *2 allele ([3]; 88 British, control group): 1 of *3 or *2 allele vs. only 38% of control | risks of major bleeding ([3]; 88 British, low dose group): group; ↑ risks of major bleeding in the low dose | MD (daily maintenance dose) ([3]; 94 British, CYP2C9 *1/*2): 3.8 mg/day | MD (daily maintenance dose) ([3]; 180 Caucasian, *1/*2, *2/*2): 5.2 mg/day | MD (daily maintenance dose) ([3]; 180 Caucasian, *1/*3): 3.8 mg/day | MD (daily maintenance dose) ([3]; 180 Caucasian, *2/*3): 1.8 mg/day | MD (daily maintenance dose) ([3]; 561 British, *1/*2): 4.31 mg/day | MD (daily maintenance dose) ([3]; 561 British, *1/*3): 3.97 mg/day | MD (daily maintenance dose) ([3]; 561 British, *2/*2): 3.04 mg/day | MD (daily maintenance dose) ([3]; 561 British, *2/*3): 4.09 mg/day | share of subjects homozygous for CYP2C9*1 ([3]; subjects requiring a high dose (>55 mg/week)): 83% | share of subjects heterozygous for CYP2C9*2 ([3]; subjects requiring a low dose (5-15 mg/week)): 90% | recurrence rate ([4]; Lagerstedt 1985, calf vein thrombosis, heparin 5 days then warfarin 3 months vs only heparin […] days): no recurrences | incidence of recurrence ([4]; both groups: INR 2.5 to 4.5 and INR 2.0 to 2.5): approximately 2%
